Measured values reported in PubChem BioAssay (NCI).
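Where inhibition never reached the appropriate level, the endpoint shown equals the highest concentration tested. Otherwise, values were interpolated linearly from a five-concentration, 48-hour dose response in 96-well plates. GI50 = concentration required for 50% inhibition of growth. TGI is the concentration that stops growth completely.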

What was measured:
Assay in all cases: inhibition of tumour cell growth, NCI panel, 48 h
[1] = test system: HCC-2998 colon
[2] = test system: SF-539 CNS
[3] = test system: OVCAR-3 ovarian
[4] = test system: RXF 393 renal
[5] = test system: 786-0 renal
[6] = test system: CAKI-1 renal
[7] = test system: HCT-15 colon
[8] = test system: NCI-H460 lung
[9] = test system: M14 melanoma
[10] = test system: MDA-MB-435
[11] = test system: OVCAR-8 ovarian
[12] = test system: HOP-62 NSCLC
[13] = test system: U251 CNS
[14] = test system: T-47D breast
[15] = test system: SR leukemia
[16] = test system: SK-MEL-2 melanoma
[17] = test system: HT29 colon
[18] = test system: SK-MEL-28 melanoma
[19] = test system: CCRF-CEM leukemia
[20] = test system: A498 renal
[21] = test system: NCI-H23 lung
[22] = test system: SF-268 CNS
[23] = test system: SNB-19 CNS
[24] = test system: UO-31 renal
[25] = test system: BT-549 breast
[26] = test system: SN12C renal
[27] = test system: MDA-MB-231 breast
[28] = test system: UACC-257 melanoma
[29] = test system: MALME-3M melanoma
[30] = test system: COLO 205 colon
[31] = test system: HOP-92 NSCLC
[32] = test system: DU-145 prostate
[33] = test system: SNB-75 CNS
[34] = test system: A549 NSCLC
[35] = test system: OVCAR-5 ovarian
[36] = test system: LOX IMVI melanoma
[37] = test system: MCF7 breast
[38] = test system: RPMI-8226 leukemia
[39] = test system: MOLT-4 leukemia
[40] = test system: PC-3 prostate
[41] = test system: SW-620 colon
[42] = test system: NCI/ADR-RES ovarian
[43] = test system: ACHN renal
[44] = test system: NCI-H522 lung
[45] = test system: HS 578T breast
[46] = test system: KM12 colon
[47] = test system: EKVX NSCLC
[48] = test system: OVCAR-4 ovarian
[49] = test system: SK-MEL-5 melanoma
[50] = test system: SF-295 CNS
[51] = test system: IGROV1 ovarian
[52] = test system: TK-10 renal
[53] = test system: K-562 leukemia
[54] = test system: NCI-H226 lung
[55] = test system: UACC-62 melanoma
[56] = test system: HCT-116 colon
[57] = test system: HL-60(TB) leukemia
[58] = test system: SK-OV-3 ovarian

CCN1C(=O)/C(=C/c2c(Cl)[nH]c3cc(C)c(OC)cc23)c2ccccc21
GI50 [1]: 2.4 µM | TGI [1]: 7.15 µM | GI50 [2]: 0.251 µM | TGI [2]: 0.52 µM | GI50 [3]: 2.6 µM | TGI [3]: 8.37 µM | GI50 [4]: 1.11 µM | TGI [4]: 34 µM | GI50 [5]: 4.87 µM | TGI [5]: 21.3 µM | GI50 [6]: 5.45 µM | TGI [6]: > 100 µM | GI50 [7]: 4.19 µM | TGI [7]: > 100 µM | GI50 [8]: 3.31 µM | TGI [8]: 70.2 µM | GI50 [9]: 4.42 µM | TGI [9]: 53.9 µM | GI50 [10]: 0.315 µM | TGI [10]: 0.737 µM | GI50 [11]: 4.29 µM | TGI [11]: > 100 µM | GI50 [12]: 5.6 µM | TGI [12]: 30.8 µM | GI50 [13]: 4.53 µM | TGI [13]: 20.2 µM | GI50 [14]: 3.76 µM | TGI [14]: > 100 µM | GI50 [15]: 2.49 µM | TGI [15]: > 100 µM | GI50 [16]: 0.708 µM | TGI [16]: > 100 µM | GI50 [17]: 1.55 µM | TGI [17]: > 100 µM | GI50 [18]: 49.3 µM | TGI [18]: > 100 µM | GI50 [19]: 1.76 µM | TGI [19]: 5.22 µM | GI50 [20]: 5.95 µM | TGI [20]: 33 µM | GI50 [21]: 5.37 µM | TGI [21]: > 100 µM | GI50 [22]: 6.18 µM | TGI [22]: > 100 µM | GI50 [23]: 3.43 µM | TGI [23]: 48.2 µM | GI50 [24]: 2.87 µM | TGI [24]: > 100 µM | GI50 [25]: 0.5 µM | TGI [25]: 6.31 µM | GI50 [26]: 5.51 µM | TGI [26]: 83.1 µM | GI50 [27]: 2.43 µM | TGI [27]: 54.1 µM | GI50 [28]: 6.47 µM | TGI [28]: > 100 µM | GI50 [29]: 14.9 µM | TGI [29]: 70.6 µM | GI50 [30]: 2.77 µM | TGI [30]: 15.4 µM | GI50 [31]: 12.8 µM | TGI [31]: 63.4 µM | GI50 [32]: 3.29 µM | TGI [32]: > 100 µM | GI50 [33]: 13.8 µM | TGI [33]: > 100 µM | GI50 [34]: 2.84 µM | TGI [34]: > 100 µM | GI50 [35]: 16.5 µM | TGI [35]: 85.3 µM | GI50 [36]: 9.72 µM | TGI [36]: > 100 µM | GI50 [37]: 0.409 µM | TGI [37]: > 100 µM | GI50 [38]: 2.7 µM | TGI [38]: 24.1 µM | GI50 [39]: 4.36 µM | TGI [39]: 35.2 µM | GI50 [40]: 3.91 µM | TGI [40]: > 100 µM | GI50 [41]: 3.67 µM | TGI [41]: > 100 µM | GI50 [42]: 4.65 µM | TGI [42]: 65 µM | GI50 [43]: 9.36 µM | TGI [43]: > 100 µM | GI50 [44]: 0.823 µM | TGI [44]: 6.58 µM | GI50 [45]: 2.86 µM | TGI [45]: 7.23 µM | GI50 [46]: 0.483 µM | TGI [46]: 12.2 µM | GI50 [47]: 7.58 µM | TGI [47]: 80.4 µM | GI50 [48]: 29.8 µM | TGI [48]: > 100 µM | GI50 [49]: 2.99 µM | TGI [49]: 8.19 µM | GI50 [50]: 1.49 µM | TGI [50]: 40.6 µM | GI50 [51]: 2.07 µM | TGI [51]: > 100 µM | GI50 [52]: 16.5 µM | TGI [52]: 75.6 µM | GI50 [53]: 3.03 µM | TGI [53]: > 100 µM | GI50 [54]: 32.2 µM | TGI [54]: > 100 µM | GI50 [55]: 0.526 µM | TGI [55]: 23.7 µM | GI50 [56]: 3.78 µM | TGI [56]: 16.8 µM

C#CC1(O)C(COP(=O)(O)OCC(COP(=O)(O)OCC2OC(n3cc(F)c(=O)[nH]c3=O)CC2O)OCCCCCCCCCCCCCCCCCC)OC(n2ccc(N)nc2=O)C1O (centres undefined)
GI50 [1]: 0.0752 µM | TGI [1]: 1.26 µM | GI50 [2]: < 0.01 µM | TGI [2]: 3.33 µM | GI50 [3]: 0.448 µM | GI50 [4]: 0.393 µM | TGI [4]: 6.33 µM | GI50 [5]: 0.0379 µM | TGI [5]: 17 µM | GI50 [6]: 0.0293 µM | TGI [6]: 1.16 µM | GI50 [7]: 0.134 µM | TGI [7]: > 100 µM | GI50 [8]: < 0.01 µM | GI50 [9]: 0.215 µM | TGI [9]: 6.45 µM | GI50 [10]: 0.566 µM | TGI [10]: > 27.2 µM | GI50 [11]: 0.169 µM | TGI [11]: > 36.5 µM | GI50 [12]: 0.0631 µM | TGI [12]: 10.6 µM | GI50 [13]: 0.135 µM | TGI [13]: > 100 µM | GI50 [57]: 0.982 µM | TGI [57]: > 100 µM | GI50 [14]: 3.72 µM | TGI [14]: > 51.3 µM | GI50 [16]: 0.481 µM | TGI [16]: 6.24 µM | GI50 [17]: 0.104 µM | TGI [17]: > 71.9 µM | GI50 [18]: 7.4 µM | TGI [18]: > 100 µM | GI50 [19]: 0.217 µM | TGI [19]: > 39.7 µM | GI50 [20]: 0.421 µM | TGI [20]: 12.1 µM | GI50 [21]: 0.28 µM | TGI [21]: 8.72 µM | GI50 [22]: 0.102 µM | TGI [22]: 9.45 µM | GI50 [23]: 0.313 µM | TGI [23]: > 57.2 µM | GI50 [24]: 0.461 µM | GI50 [25]: 0.155 µM | TGI [25]: 5.41 µM | GI50 [26]: < 0.0229 µM | TGI [26]: 1.93 µM | GI50 [27]: 0.32 µM | GI50 [28]: 0.448 µM | TGI [28]: > 31.6 µM | GI50 [29]: 0.102 µM | TGI [29]: 5.36 µM | GI50 [30]: < 0.0202 µM | TGI [30]: 1.07 µM | GI50 [31]: 0.764 µM | GI50 [32]: 0.106 µM | TGI [32]: > 71.9 µM | GI50 [33]: 0.713 µM | TGI [33]: > 55.3 µM | GI50 [34]: 0.117 µM | TGI [34]: > 68.3 µM | GI50 [35]: 5.36 µM | TGI [35]: > 52.6 µM | GI50 [36]: 0.0765 µM | TGI [36]: > 27.7 µM | GI50 [37]: < 0.01 µM | TGI [37]: > 32 µM | GI50 [38]: 0.111 µM | TGI [38]: > 100 µM | GI50 [58]: 10.1 µM | TGI [58]: 76.3 µM | GI50 [39]: 0.348 µM | TGI [39]: > 100 µM | GI50 [40]: 0.0397 µM | TGI [40]: 6.72 µM | GI50 [41]: 0.0269 µM | TGI [41]: > 100 µM | GI50 [42]: 0.147 µM | TGI [42]: > 40.4 µM | GI50 [43]: 0.149 µM | TGI [43]: > 100 µM | GI50 [44]: 0.712 µM | TGI [44]: > 34.8 µM | GI50 [45]: 2.16 µM | TGI [45]: > 52.8 µM | GI50 [46]: 0.0933 µM | TGI [46]: > 34.1 µM | GI50 [47]: 0.618 µM | TGI [47]: 25.8 µM | GI50 [48]: 0.992 µM | TGI [48]: > 100 µM | GI50 [49]: 0.275 µM | TGI [49]: 9.29 µM | GI50 [50]: 0.0555 µM | TGI [50]: 16.3 µM | GI50 [51]: 0.236 µM | GI50 [52]: 0.241 µM | TGI [52]: > 29 µM | GI50 [53]: 0.338 µM | TGI [53]: > 100 µM | GI50 [54]: 0.113 µM | GI50 [55]: 0.196 µM | TGI [55]: 2.69 µM | GI50 [56]: < 0.01 µM | TGI [56]: > 40.7 µM
